{
  "source": "patent US8901118B2",
  "about": "“Compounds and methods for kinase modulation, and indications therefor” (Plexxikon Inc., priority 2010, dated 2014)",
  "data": [
    {"molecular_target": "T1, BCR-NTRK2 BaF3 cells (Homo sapiens, UniProt Q16620)", "T1 construct": "fused on or other part: P11274 (Breakpoint cluster region protein)", "T1 sequence (Q16620 538-807)": "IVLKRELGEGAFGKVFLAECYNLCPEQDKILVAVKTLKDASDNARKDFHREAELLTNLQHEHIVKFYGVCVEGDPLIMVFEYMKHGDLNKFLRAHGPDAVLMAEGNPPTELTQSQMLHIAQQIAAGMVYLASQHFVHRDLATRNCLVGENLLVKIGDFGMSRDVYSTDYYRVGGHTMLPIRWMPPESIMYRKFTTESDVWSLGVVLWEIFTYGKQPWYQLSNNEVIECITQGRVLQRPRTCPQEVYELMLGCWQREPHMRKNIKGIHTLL", "test": "BaF3 BCR-NTRK2 cell proliferation assay (ATPlite)", "type": "cell-based", "conditions": "read-out: Inhibition of Cell Proliferation IC50, BCR/BaF3 TrkB", "how_it_was_run": "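BaF3 lines were seeded at 10,000 cells/well in growth medium with 1 mg/mL G418 but no IL-3, and MV-4-11 cells at 25,000 cells/well; plates were left overnight at 37 °C. Compounds were added as an 8-point 1:3 series with a top concentration of 10 μM and incubated 3 days. IC50 was taken from ATPlite luminescence.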", "units": {"IC50": "µM"}, "values": [
      {"molecule": "CCc1ccc(Nc2ncc(Cc3c[nH]c4ncc(C)cc34)cn2)cc1", "note": "[Compound P-3025, (4-Ethyl-phenyl)-[5-(5-methyl-1H-pyrrolo[2,3-b]pyridin-3-ylmethyl)-pyrimidin-2-yl]-amine]", "IC50": "< 0.01"},
      {"molecule": "CCOc1ccc(Nc2ccc(Cc3c[nH]c4ncnc(C5CC5)c34)c(F)n2)cn1", "note": "[Compound P-4026, [5-(4-Cyclopropyl-7H-pyrrolo[2,3-d]pyrimidin-5-ylmethyl)-6-fluoro-pyridin-2-yl]-(6-ethoxy-pyridin-3-yl)-amine]", "IC50": "< 0.01"},
      {"molecule": "CCn1ccc(Nc2ncc(Cc3c[nH]c4ncc(C)cc34)cn2)n1", "note": "[Compound P-3035, (1-Ethyl-1H-pyrazol-3-yl)-[5-(5-methyl-1H-pyrrolo[2,3-b]pyridin-3-ylmethyl)-pyrimidin-2-yl]-amine]", "IC50": "< 1"},
      {"molecule": "Cc1cnc2[nH]cc(Cc3cnc(Nc4cc(-c5ccc(F)cc5)n[nH]4)nc3)c2c1", "note": "[Compound P-3028, [5-(4-Fluoro-phenyl)-2H-pyrazol-3-yl]-[5-(5-methyl-1H-pyrrolo[2,3-b]pyridin-3-ylmethyl)-pyrimidin-2-yl]-amine]", "IC50": "< 1"},
      {"molecule": "CCOc1ncnc2[nH]cc(Cc3ccc(Nc4cccnc4)nc3F)c12", "note": "[Compound P-4021, [5-(4-Ethoxy-7H-pyrrolo[2,3-d]pyrimidin-5-ylmethyl)-6-fluoro-pyridin-2-yl]-pyridin-3-yl-amine]", "IC50": "< 1"},
      {"molecule": "COc1cc(Nc2ncc(Cc3c[nH]c4ncc(C)cc34)cn2)ccc1F", "note": "[Compound P-3022, (4-Fluoro-3-methoxy-phenyl)-[5-(5-methyl-1H-pyrrolo[2,3-b]pyridin-3-ylmethyl)-pyrimidin-2-yl]-amine]", "IC50": "< 1"},
      {"molecule": "Cc1cnc2[nH]cc(Cc3cnc(Nc4cc(C(C)(C)C)n[nH]4)nc3)c2c1", "note": "[Compound P-3029, (5-tert-Butyl-2H-pyrazol-3-yl)-[5-(5-methyl-1H-pyrrolo[2,3-b]pyridin-3-ylmethyl)-pyrimidin-2-yl]-amine]", "IC50": "> 1"},
      {"molecule": "Cc1cnc2[nH]cc(Cc3cnc(Nc4ccc(S(C)(=O)=O)cc4)nc3)c2c1", "note": "[Compound P-3034, (4-Methanesulfonyl-phenyl)-[5-(5-methyl-1H-pyrrolo[2,3-b]pyridin-3-ylmethyl)-pyrimidin-2-yl]-amine]", "IC50": "< 1"},
      {"molecule": "Cc1ccc(Nc2ccc(Cc3c[nH]c4ncc(Cl)cc34)c(F)n2)cn1", "note": "[Compound P-3042, [5-(5-Chloro-1H-pyrrolo[2,3-b]pyridin-3-ylmethyl)-6-fluoro-pyridin-2-yl]-(6-methyl-pyridin-3-yl)-amine]", "IC50": "< 0.1"},
      {"molecule": "COc1ccc(Nc2ncc(Cc3c[nH]c4ncc(C)cc34)cn2)cc1", "note": "[Compound P-3021, (4-Methoxy-phenyl)-[5-(5-methyl-1H-pyrrolo[2,3-b]pyridin-3-ylmethyl)-pyrimidin-2-yl]-amine]", "IC50": "< 0.1"},
      {"molecule": "CCOc1ccc(Nc2ncc(Cc3c[nH]c4ncc(C)cc34)cn2)cn1", "note": "[Compound P-3027, (6-Ethoxy-pyridin-3-yl)-[5-(5-methyl-1H-pyrrolo[2,3-b]pyridin-3-ylmethyl)-pyrimidin-2-yl]-amine]", "IC50": "< 1"},
      {"molecule": "Cc1cncc(Nc2ccc(C(=O)c3c[nH]c4ncnc(C5CC5)c34)c(F)n2)c1", "note": "[Compound P-4039, (4-Cyclopropyl-7H-pyrrolo[2,3-d]pyrimidin-5-yl)-[2-fluoro-6-(5-methyl-pyridin-3-ylamino)-pyridin-3-yl]-methanone]", "IC50": "< 0.1"},
      {"molecule": "CSc1ccc(Nc2ncc(Cc3c[nH]c4ncc(C)cc34)cn2)cc1", "note": "[Compound P-3033, [5-(5-Methyl-1H-pyrrolo[2,3-b]pyridin-3-ylmethyl)-pyrimidin-2-yl]-(4-methylsulfanyl-phenyl)-amine]", "IC50": "< 0.1"},
      {"molecule": "CCCOc1ccc(Nc2ncc(Cc3c[nH]c4ncc(C)cc34)cn2)cc1", "note": "[Compound P-3024, [5-(5-Methyl-1H-pyrrolo[2,3-b]pyridin-3-ylmethyl)-pyrimidin-2-yl]-(4-propoxy-phenyl)-amine]", "IC50": "< 1"},
      {"molecule": "Fc1cccc(Nc2ncc(Cc3c[nH]c4ncc(Cl)cc34)cn2)c1", "note": "[Compound P-3017, [5-(5-Chloro-1H-pyrrolo[2,3-b]pyridin-3-ylmethyl)-pyrimidin-2-yl]-(3-fluoro-phenyl)-amine]", "IC50": "> 10"},
      {"molecule": "Cc1cnc2[nH]cc(Cc3cnc(Nc4cc(C5CC5)n[nH]4)nc3)c2c1", "note": "[Compound P-3032, (5-Cyclopropyl-2H-pyrazol-3-yl)-[5-(5-methyl-1H-pyrrolo[2,3-b]pyridin-3-ylmethyl)-pyrimidin-2-yl]-amine]", "IC50": "> 1"},
      {"molecule": "CCOc1ncnc2[nH]cc(Cc3ccc(Nc4ccc(Br)nc4)nc3F)c12", "note": "[Compound P-4020, (6-Bromo-pyridin-3-yl)-[5-(4-ethoxy-7H-pyrrolo[2,3-d]pyrimidin-5-ylmethyl)-6-fluoro-pyridin-2-yl]-amine]", "IC50": "< 0.1"},
      {"molecule": "CCOc1ccc(Nc2ccc(C(=O)c3c[nH]c4ncc(C)cc34)c(F)n2)cn1", "note": "[Compound P-3045, [6-(6-ethoxy-pyridin-3-ylamino)-2-fluoro-pyridin-3-yl]-(5-methyl-1H-pyrrolo[2,3-b]pyridin-3-yl)-methanone]", "IC50": "< 0.01"},
      {"molecule": "Cc1cnc2[nH]cc(Cc3cnc(Nc4ccc(C(C)(C)C)cc4)nc3)c2c1", "note": "[Compound P-3030, (4-tert-Butyl-phenyl)-[5-(5-methyl-1H-pyrrolo[2,3-b]pyridin-3-ylmethyl)-pyrimidin-2-yl]-amine amine]", "IC50": "< 0.01"},
      {"molecule": "CCOc1ccc(Nc2ccc(C(=O)c3c[nH]c4ncnc(C5CC5)c34)c(F)n2)cn1", "note": "[Compound P-4027, (4-Cyclopropyl-7H-pyrrolo[2,3-d]pyrimidin-5-yl)-[6-(6-ethoxy-pyridin-3-ylamino)-2-fluoro-pyridin-3-yl]-methanone]", "IC50": "< 0.01"},
      {"molecule": "CCOc1ccc(Nc2ccc(C(=O)c3c[nH]c4ncnc(C)c34)c(F)n2)cn1", "note": "[Compound P-4032, [6-(6-Ethoxy-pyridin-3-ylamino)-2-fluoro-pyridin-3-yl]-(4-methyl-7H-pyrrolo[2,3-d]pyrimidin-5-yl)-methanone]", "IC50": "< 0.1"},
      {"molecule": "Cc1cncc(Nc2ccc(Cc3c[nH]c4ncnc(C5CC5)c34)c(F)n2)c1", "note": "[Compound P-4038, [5-(4-Cyclopropyl-7H-pyrrolo[2,3-d]pyrimidin-5-ylmethyl)-6-fluoro-pyridin-2-yl]-(5-methyl-pyridin-3-yl)-amine]", "IC50": "< 1"},
      {"molecule": "COc1ccc(Nc2ncc(Cc3c[nH]c4ncc(C)cc34)cn2)cc1F", "note": "[Compound P-3023, (3-Fluoro-4-methoxy-phenyl)-[5-(5-methyl-1H-pyrrolo[2,3-b]pyridin-3-ylmethyl)-pyrimidin-2-yl]-amine]", "IC50": "< 1"},
      {"molecule": "Clc1cnc2[nH]cc(Cc3cnc(NC4CC4)nc3)c2c1", "note": "[Compound P-3005, [5-(5-Chloro-1H-pyrrolo[2,3-b]pyridin-3-ylmethyl)-pyrimidin-2-yl]-cyclopropyl-amine]", "IC50": "> 10"},
      {"molecule": "Cc1cnc2[nH]cc(Cc3cnc(Nc4ccc(C(O)(C(F)(F)F)C(F)(F)F)cc4)nc3)c2c1", "note": "[Compound P-3031, 1,1,1,3,3,3-Hexafluoro-2-{4-[5-(5-methyl-1H-pyrrolo[2,3-b]pyridin-3-ylmethyl)-pyrimidin-2-ylamino]-phenyl}-propan-2-ol]", "IC50": "< 0.01"},
      {"molecule": "CCOc1ccc(Nc2ncc(Cc3c[nH]c4ncc(C)cc34)cn2)cc1", "note": "[Compound P-3026, (4-Ethoxy-phenyl)-[5-(5-methyl-1H-pyrrolo[2,3-b]pyridin-3-ylmethyl)-pyrimidin-2-yl]-amine]", "IC50": "< 0.1"}
    ]}
  ]
}
